These results are taken from PubChem BioAssay AID651913 (NMMLSC, 2012).

The structures appear in SMILES notation.

For the assay, the system named is MG13-hCCR5 cells, FAP-MG2p fluorogen binding, flow cytometry MCF. As to the kind of experiment: interference with FAP-CCR5 fluorogen signal, dose response, counter-screen for beta2AR agonist project, cell-based, FAP-tagged human CCR5, Powderset5 (AID 651913).

Take `O=C(C1CCCN1S(=O)(=O)c1ccc(Cl)cc1)N1CCN(c2ccccn2)CC1` (stereo not given): the EC50 (in general, the concentration needed to bring the measured effect to its halfway point) was 257 nM.

On to `CN(CC(=O)N1CCN(c2ccccn2)CC1)S(=O)(=O)c1ccc(Cl)cc1`, for which the EC50 was 10.8 nM.

For the compound `CN(CC(=O)N1CCN(c2ccc(F)cc2)CC1)S(=O)(=O)c1ccc(Br)cc1`, the concentration for a half-maximal effect (EC50) is 1030 nM.

Take `CCC1CCCCN1S(=O)(=O)c1ccc(NC(C)=O)cc1` (stereo not given): the EC50 is 455 nM.

For the compound `CN(CC(=O)N1CCN(c2ccc(F)cc2)CC1)S(=O)(=O)c1cc(Cl)ccc1Cl`, the EC50 was 54.5 nM.
